From patent US8338426B2, “Piperazinyl derivatives useful as modulators of the neuropeptide Y2 receptor” (Janssen Pharmaceutica NV, priority 2007, dated 2012)

Tests used:
human Y2 receptor [1] = target: T1, human Y2 receptor (Homo sapiens, UniProt P49146); test: Neuropeptide Y2 radioligand binding assay, [125I]PYY, KAN-Ts cells; details: KANT-S cells, mean ± S.E.M., read-out: hY2 pKi (converted)
T1 construct: KAN-Ts endogenously expressing Y2 receptors were used; endogenous in cells; host or cells: KAN-Ts cells
T1 sequence (P49146 1-381): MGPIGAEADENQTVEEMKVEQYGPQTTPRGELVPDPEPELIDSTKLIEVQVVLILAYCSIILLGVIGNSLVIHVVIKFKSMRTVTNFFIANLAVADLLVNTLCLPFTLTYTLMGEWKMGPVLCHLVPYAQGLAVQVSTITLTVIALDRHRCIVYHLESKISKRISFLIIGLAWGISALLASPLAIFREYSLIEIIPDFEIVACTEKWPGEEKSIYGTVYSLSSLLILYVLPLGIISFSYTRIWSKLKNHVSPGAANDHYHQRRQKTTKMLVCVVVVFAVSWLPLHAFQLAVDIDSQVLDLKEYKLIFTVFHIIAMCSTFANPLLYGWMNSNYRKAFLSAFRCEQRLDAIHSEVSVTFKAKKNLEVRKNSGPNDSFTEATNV
Description: Radioligand binding assays for the human and rat/mouse Y2 receptor were performed as described in Bonaventure, P., D. Nepomuceno, C. Mazur, B. Lord, D. A. Rudolph, J. A. Jablonowski, N. I. Carruthers and T. W. Lovenberg, J Pharmacol Exp Ther. 2004, 308, 1130.
KAN-Ts endogenously expressing Y2 receptors were used, for the rat and mouse Y2 receptor, membranes from rat or mouse hippocampus were prepared. Membranes were incubated with [^125I]PYY (80 pM) in the presence or absence of test compound for 1 h at rt. The reaction was stopped by filtration through GF/C filter plates pre-soaked in 0.3% polyethylenimine and subsequently washed with Tris-HCl, 50 mM, 5 mM EDTA buffer. Plates were dried for 1 h in a 55° C. oven, scintillation fluid was added and the radioactivity was counted in a Packard TopCount. Specific binding to the NPY receptor subtypes was determined by radioactivity that was bound in the presence of 1 μM NPY.
Apparent Ki values were calculated as K=IC50/(1+C/KD), where C is concentration of the radioligand and pKi=−log Ki. Data presented below are expressed as mean±S.E.M.

MTP = MTP (Homo sapiens, UniProt P55157); test: MTP assay (triglyceride transfer between vesicles); assay type: biochemical; details: read-out: MTP pIC50 (converted)
MTP, sequence (P55157 19-894, species assumed): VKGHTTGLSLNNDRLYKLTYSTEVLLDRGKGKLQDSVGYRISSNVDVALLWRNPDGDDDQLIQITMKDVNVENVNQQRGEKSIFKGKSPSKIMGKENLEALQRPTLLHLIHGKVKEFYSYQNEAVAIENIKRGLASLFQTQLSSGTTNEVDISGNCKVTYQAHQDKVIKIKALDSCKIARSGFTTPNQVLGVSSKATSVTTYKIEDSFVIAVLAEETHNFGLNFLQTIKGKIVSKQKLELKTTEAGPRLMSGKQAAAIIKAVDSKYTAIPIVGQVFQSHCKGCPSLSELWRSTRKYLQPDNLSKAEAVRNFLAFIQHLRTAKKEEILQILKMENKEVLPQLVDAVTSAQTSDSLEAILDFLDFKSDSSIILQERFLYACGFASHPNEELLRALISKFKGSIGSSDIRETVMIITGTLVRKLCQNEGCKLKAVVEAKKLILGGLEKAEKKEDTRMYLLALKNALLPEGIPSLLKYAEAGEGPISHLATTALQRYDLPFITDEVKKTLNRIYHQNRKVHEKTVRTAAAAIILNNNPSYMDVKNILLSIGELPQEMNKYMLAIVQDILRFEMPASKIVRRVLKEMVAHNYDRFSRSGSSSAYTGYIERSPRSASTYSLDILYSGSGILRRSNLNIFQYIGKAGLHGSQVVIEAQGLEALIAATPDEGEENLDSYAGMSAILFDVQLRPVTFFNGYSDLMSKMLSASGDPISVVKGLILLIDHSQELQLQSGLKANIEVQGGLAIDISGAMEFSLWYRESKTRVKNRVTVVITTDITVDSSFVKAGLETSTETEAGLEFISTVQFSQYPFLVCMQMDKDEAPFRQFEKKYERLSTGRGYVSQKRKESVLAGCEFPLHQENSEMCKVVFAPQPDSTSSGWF
MTP, sequence (P07237 18-508 partner, species assumed): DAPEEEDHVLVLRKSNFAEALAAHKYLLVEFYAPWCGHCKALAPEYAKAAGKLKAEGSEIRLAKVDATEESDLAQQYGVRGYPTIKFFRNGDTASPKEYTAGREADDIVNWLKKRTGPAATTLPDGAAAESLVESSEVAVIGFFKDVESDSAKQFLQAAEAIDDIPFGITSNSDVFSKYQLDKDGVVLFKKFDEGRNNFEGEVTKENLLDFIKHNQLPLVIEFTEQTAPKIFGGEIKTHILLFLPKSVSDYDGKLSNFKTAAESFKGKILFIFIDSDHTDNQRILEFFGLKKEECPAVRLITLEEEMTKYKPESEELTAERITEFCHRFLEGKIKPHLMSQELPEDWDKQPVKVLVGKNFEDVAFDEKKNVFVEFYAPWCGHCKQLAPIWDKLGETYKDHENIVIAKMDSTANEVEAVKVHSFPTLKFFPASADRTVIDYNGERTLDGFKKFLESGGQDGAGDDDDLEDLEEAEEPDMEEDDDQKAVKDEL
Description: MTP activity was measured using an assay similar to one described by J. R. Wetterau and D. B. Zilversmit in Chemistry and Physics of Lipids (1985) 38, 205-222.
In order to prepare the donor and acceptor vesicles, the appropriate lipids in chloroform were put into a glass test tube and dried under a stream of nitrogen. A buffer containing 15 mM Tris-HCl (pH 7.5), 1 mM ethylenediamine tetra-acetic acid, 40 mM NaCl, 0.02% NaN3 (assay buffer) was added to the dried lipid. The mixture was vortexed briefly and the lipids were then allowed to hydrate for 20 minutes on ice. Vesicles were then prepared by bath sonication (using a Branson 2200 device) at room temperature for at most 15 minutes. Butylated hydroxytoluene was included in all vesicle preparations at a concentration of 0.1%. The lipid transfer assay mixture contained donor vesicles (40 nmole phosphatidylcholine, 7.5 mole % cardiolipin and 0.25 mole % glycerol tri[1-^14C]-oleate), acceptor vesicles (240 nmol phosphatidylcholine) and 5 mg bovine serum albumin in a total volume of 675 μl in a 1.5 ml microcentrifuge tube. Test compound was added dissolved in dimethylsulfoxide (0.13% final concentration). After 5 minutes of pre-incubation at 37° C., the reaction was started by the addition of MTP in 100 μl of a dialysis buffer. The reaction was stopped by the addition of 400 μl […] (DEAE)-52 cellulose (Sephadex) pre-equilibrated in 15 mM Tris-HCl (pH 7.5), 1 mM ethylenediamine tetra-acetic acid and 0.02% NaN3 (1:1 volume/volume). The mixture was agitated for 4 minutes and centrifuged for 2 minutes at maximum speed in an Eppendorf centrifuge (4° C.) to pellet the DEAE-52-bound donor vesicles. An aliquot of the supernatant containing the acceptor liposomes was counted and the [^14C]-counts were used to calculate the percent triglyceride transfer from donor to acceptor vesicles.
Representative compounds of the present invention were measured for binding against the MTP receptor, as described above, with results as listed in Table 2 below.

human Y2 receptor [2] = target: T1, human Y2 receptor; test: [35S]GTPγS binding assay in KAN-Ts cells; assay type: biochemical
Description: [^35S] GTPγS binding assay in KAN-Ts cells was performed as described in Bonaventure, P., D. Nepomuceno, C. Mazur, B. Lord, D. A. Rudolph, J. A. Jablonowski, N. I. Carruthers and T. W. Lovenberg, J Pharmacol Exp Ther. 2004, 308, 1130.
Assay mixtures (150 were preincubated with compounds for 30 minutes at ambient temperature. Then, 50 μl of [^35S]GTPγS in assay buffer was added to a final concentration of 200 pM and the assay mixtures were incubated for 1 hour at ambient temperature. Reactions were terminated by rapid filtration thought GF/C filters. Filters were washed twice with ice cold 50 mM Tris-HCl, pH 7.4 containing 10 mM MgCl2. Basal [^35S]GTPγS was measured in the absence of compounds. In initial experiments, nonspecific binding was measured in the presence of 100 μM GTPgS. This nonspecific binding never exceeded 10% of basal binding and was thus not subtracted from experimental data. Stimulation of [^35S]GTPγS was determined as percentage over basal and was calculated as one hundred times the difference between stimulated and basal binding (in cpm). […] Data are expressed as mean±S.E.M.
The antagonistic properties of the compound of formula (A) were evaluated in a [^35S]GTPγS binding assay in KAN-Ts cells endogenously expressing human Y2 receptors. […]

Ki (human Y2 receptor [1]): 5.5 nM | IC50 (MTP): 794 nM | IC50 (human Y2 receptor [2]; read-out: hY2 pIC50corr (converted)): 0.0501 nM | effect of compound by itself on [35S]GTPγS binding (human Y2 receptor [2]; up to 10 μM, no PYY): did not affect
Compound: CCN(CC)C(=O)C(c1ccccc1)N1CCN(c2ccc(NC(=O)c3ccccc3-c3cccnc3)cc2F)CC1 (racemic) [Cmpd (A), N-{4-[4-(Diethylcarbamoyl-phenyl-methyl)-piperazin-1-yl]-3-fluoro-phenyl}-2-pyridin-3-yl-benzamide]
